According to patent publication US20060130266A1, “Dermal drug delivery system” (priority 2004, published 2006):
Marks after values point to notes of the source that are not given here. Values belong to the molecule of their own block, whether it stands above or below them.

What was measured:
[1] = In vitro skin permeation of angiotensin II, Franz cell infinite dose, EIA analysis; format: in vitro ADME, human
Protocol: Analysis of the peptide was carried out using an enzyme immunoassay (EIA) as described in the EIA booklet. Briefly, a competitive enzyme immunoassay which detects Ang II in biological matrices was employed. The principle of the assay is based upon the competition for antibody binding sites between biotinylated and non-biotinylated peptides. The biotin group on the biotinylated peptide is then conjugated to SA-HRP which in turn reacts with another substrate ([…]) leading to the formation of colour. The absorbance recorded from each well is a direct measure of the extent of binding for each peptide with the antibody. Absorbance was measured using a spectrophotometer. The method was validated by calibrating the response at different concentrations of the peptide (data not shown) and also the ability of the method to assess different concentrations of the penetrant in the presence of any matrices was investigated.
(§1) This is a well established physical method of enhancing skin permeation, in vitro, which involves the use of electric current to permeabilise skin and/or promote the migration of drug ions across skin (Cullander, 1992; Guy et al., 2001; Kalia et al., 2004). Anodal treatment was conducted by placing the anode electrode in the donor compartment and the opposite electrode (cathode) in the receptor compartment of the Franz cell. Cathodal iontophoresis was conducted vice versa. The current treatment protocols employed were either • (a) iontophoresis: dose was administered simultaneously with current or • (b) post-iontophoresis: dose applied immediately after skin exposure to current. • A current intensity of 0.40 mA was employed for a 10 min period during both protocols. Novel Device (Rotatinig Brush) Procedure

[2] = In vitro skin permeation, Franz cell pseudo-finite dose study (acyclovir and CF); format: in vitro ADME, human; settings: for Amount in receptor after 60 min: Zovirax cream spiked with 3H-ACV; for EF: acyclovir, vs untreated skin
Protocol: Zovirax® spiked with ^3H-ACV was used as the formulation for the entire study. Briefly, 300 μl of ^3H ACV was placed into a 1.5 ml centrifuge tube and evaporated off, over a stream of air. Approximately 1 g of Zovirax® was weighed into the centrifuge tube and carefully mixed with a fine spatula to achieve a homogenous mix. To test for homogeneity, 3 random samples (top, middle and bottom) were taken and determined for radioactivity via scintillation counting.
as §1, with “Anodal” for “This is a well established physical method of enhancing skin permeation, in vitro, which involves the use of electric current to permeabilise skin and/or promote the migration of drug ions across skin (Cullander, 1992; Guy et al., 2001; Kalia et al., 2004). Anodal”
Finite dose permeation experiments were performed using similar conditions as described above. The Franz cell studies were carried out without the use of a donor well, in order to allow for the placement of the iontophoretic device over the epidermal membrane. […] The effectiveness of the seal was confirmed if leakage of receptor fluid from the region of contact between skin and adhesive was not observed.
A formulation with a target dose of approximately 9±1 mg/cm^2 (ACV) and 20±2 mg/cm^2 (CF) was applied to the epidermal membrane surface using a previously calibrated positive displacement pipette. Selected control experiments were then performed as described above (anodal and cathodal iontophoresis was performed by simultaneous application of dose and current over a 10 min period for CF and ACV respectively). At certain time intervals 200 μl of the receiver fluid was carefully withdrawn from the receiver fluid (maximum duration of 4 h). Approximately 4 ml of scintillation cocktail was then added and the ACV sample analysed by scintillation counting, whereas the other penetrant was assayed via the HPLC method already described.

[3] = In vitro skin permeation, Franz cell infinite dose study (optimisation studies with MP, BP, CF); settings: CF; for EF enhancement factor: flux vs untreated skin
[4] = Table 4a, brush A 450 Nm^−2/20 s, 80 rpm
[5] = Table 4a, brush A 450 Nm^−2/45 s, 80 rpm
[6] = Table 4a, brush A 1200 Nm^−2/45 s, 80 rpm
[7] = Table 5a, EtOH/PBS (50% ethanol donor solution)
[8] = Table 5a, brush A 450 Nm^−2, 45 s, 80 rpm
[9] = Table 5a, brush B 300 Nm^−2, 15 s, 80 rpm
[10] = Table 5a, brush B 300 Nm^−2, 25 s, 80 rpm
[11] = brush B 10 s, 300 Nm^−2, 80 rpm
[12] = brush B 30 s, 300 Nm^−2, 80 rpm
[13] = brush B 60 s, 300 Nm^−2, 80 rpm

EF ([1]; 4 h, delipidisation vs untreated skin): 58
EF ([1]; 4 h, post-iontophoresis vs untreated skin): 1.7
EF ([1]; 4 h, rotating brush (brush B) vs untreated skin): 72
EF ([1]; 4 h, tape-stripping vs untreated skin): 53
EF ([1]; 24 h, delipidisation vs untreated skin): 49
EF ([1]; 24 h, post-iontophoresis vs untreated skin): 6
EF ([1]; 24 h, rotating brush (brush B) vs untreated skin): 63
EF ([1]; 24 h, tape-stripping vs untreated skin): 27
Amount in receptor after 4 h ([1]; delipidisation): 15.71 ± 2.85 ng/cm^2
Amount in receptor after 24 h ([1]; delipidisation): 83.03 ± 24.28 ng/cm^2
Amount in receptor after 24 h ([1]; post-iontophoresis): 10.02 ± 6.28 ng/cm^2
Amount in receptor after 4 h ([1]; post-iontophoresis, value on sample re-analysis): 0.46 ± 0.15^+ ng/cm^2
Amount in receptor after 4 h ([1]; rotating brush (brush B)): 19.45 ± 0.55 ng/cm^2
Amount in receptor after 24 h ([1]; rotating brush (brush B)): 107.49 ± 19.66 ng/cm^2
Amount in receptor after 4 h ([1]; tape-stripping): 14.44 ± 4.73 ng/cm^2
Amount in receptor after 24 h ([1]; tape-stripping): 46.93 ± 15.62 ng/cm^2
Amount in receptor after 4 h ([1]; untreated skin, 1 mg/ml in PBS): 0.27 ± 0.23 ng/cm^2
Amount in receptor after 24 h ([1]; untreated skin, 1 mg/ml in PBS): 1.69 ± 1.01 ng/cm^2
SMILES: CC[C@H](C)[C@H](NC(=O)[C@H](Cc1ccc(O)cc1)NC(=O)[C@@H](NC(=O)[C@H](CCCNC(=N)N)NC(=O)[C@@H](N)CC(=O)O)C(C)C)C(=O)N[C@@H](Cc1cnc[nH]1)C(=O)N1CCC[C@H]1C(=O)N[C@@H](Cc1ccccc1)C(=O)O [Ang II, Angiotensin II]

SMILES: Cn1c(=O)c2c(ncn2C)n(C)c1=O [CF, Caffeine]
Amount of CF in receptor after 30 min compared with other methods of enhancement ([2]; pseudo-finite dose, brush B 300 Nm^−2/25 s): at least double
Amount of CF deposited in receptor compartment compared with untreated skin ([2]; pseudo-finite dose, chemical enhancement method (50% ethanol)): not to be significantly different
Time after which presence of CF in receptor was determined ([2]; pseudo-finite dose, untreated skin and chemical enhancement, limit of detection 0.05 ug/ml): 120 min
Reduction of lag times relative to original value ([3]; brush A, altering pressure or duration of treatment): ~75%
KP permeability coefficient [3, 4]: 5.04 ± 1.30 10^−8 cm/s
TL lag time [3, 4]: 68.33 ± 17.76 min
EF enhancement factor [3, 4]: 1.47
JS flux ([3]; Table 4a, brush A 450 Nm^−2/20 s, 80 rpm, n = 2): 10.3 ± 2.67^p 10^−4 μg/cm/s
JS flux [3, 5]: 16.3 ± 0.86* 10^−4 μg/cm/s
KP permeability coefficient [3, 5]: 7.95 ± 0.42 10^−8 cm/s
TL lag time [3, 5]: 41.21 ± 8.09 min
EF enhancement factor [3, 5]: 2.34
JS flux [3, 6]: 18.4 ± 8.93* 10^−4 μg/cm/s
KP permeability coefficient [3, 6]: 8.97 ± 4.06 10^−8 cm/s
TL lag time [3, 6]: 16.74 ± 6.50 min
EF enhancement factor [3, 6]: 2.64
JS flux ([3]; Table 4a, delipidised skin): 52.25 ± 25.17* 10^−4 μg/cm/s
KP permeability coefficient ([3]; Table 4a, delipidised skin): 25.66 ± 12.28 10^−8 cm/s
TL lag time ([3]; Table 4a, delipidised skin): 4.19 ± 1.39 min
EF enhancement factor ([3]; Table 4a, delipidised skin): 7.47
KP permeability coefficient ([3]; Table 4a, untreated skin): 3.39 ± 0.75 10^−8 cm/s
TL lag time ([3]; Table 4a, untreated skin): 77.66 ± 12.96 min
KP permeability coefficient [3, 7]: 141.4 ± 31.21 10^−8 cm/s
TL lag time [3, 7]: 26.71 ± 9.26 min
EF enhancement factor ([3]; Table 5a, EtOH/PBS): 15.46
JS flux [3, 8]: 8.52 ± 0.29* 10^−4 μg/cm/s
KP permeability coefficient [3, 8]: 41.61 ± 14.19 10^−8 cm/s
TL lag time [3, 8]: 16.74 ± 3.99 min
EF enhancement factor [3, 8]: 4.55
KP permeability coefficient [3, 9]: 342.4 ± 170.1 10^−8 cm/s
EF enhancement factor [3, 9]: 37.41
KP permeability coefficient [3, 10]: 589.93 ± 207.62 10^−8 cm/s
EF enhancement factor [3, 10]: 64.44
KP permeability coefficient ([3]; Table 5a, delipidised skin): 99.68 ± 26.84 10^−8 cm/s
EF enhancement factor ([3]; Table 5a, delipidised skin): 10.93
TL lag time ([3]; Table 5a, untreated skin): 19.69 ± 3.54 min

Amount in receptor after 60 min [2, 11]: 5.06 ± 1.88 µg/cm^2
Amount in receptor after 60 min [2, 12]: 12.5 ± 4.02 µg/cm^2
Amount in receptor after 60 min [2, 13]: 30.91 ± 5.45 µg/cm^2
Amount in receptor after 60 min ([2]; cathodal iontophoresis 10 min, 0.40 mA): 4.95 ± 2.35 µg/cm^2
Amount in receptor after 60 min ([2]; untreated skin): 0.14 ± 0.08 µg/cm^2
EF [2, 11]: 36
EF [2, 12]: 89
EF [2, 13]: 220
EF ([2]; cathodal iontophoresis 10 min): 35
Increase in enhancement factor compared to iontophoresis ([2]; brush B at maximum treatment time (60 s)): ca. 600%
SMILES: Nc1nc2c(ncn2COCCO)c(=O)[nH]1 [acyclovir, Acyclovir]
